# Assay results taken from patent US20210353648A1, “GRAPIPRANT UNIT DOSAGE FORMS” (Arrys Therapeutics, Inc., priority 2018, published 2021).
# Read-outs that look alike come from different tables or passages of the source.
# Key:
# [1] = Phase 1 multiple ascending dose study of grapiprant tablets: urine pharmacokinetics; type: in vivo, human; conditions: for CLR/Fu: mean; for AE / AE/Dose: urine; for AE / AE/Dose / CL renal: mean (SD); for CL renal: human, urine and serum
# Description: Urine pharmacokinetic parameters can be used to assess the amount of parent drug excreted unchanged in the urine. The urine pharmacokinetic parameters can be calculated under the assumption that the amount of grapiprant excreted unchanged in the urine over the dosing interval was at steady state on the last day of dosing for the 14 day and 17 day oral administration described herein. As used herein, the term “AE” refers to the amount of parent drug excreted from 0-12 hours post dose on day 14 or day 17, calculated by (Urine Grapiprant Concentration×Urine Volume). As used herein, the term “AE/Dose” refers to percent of Dose renally excreted unchanged on day 14 or day 17, calculated by (AE/Dose)×100. As used herein, the term “CLR” refers to renal clearance on day 14 or day 17, calculated by (AE/AUCτ). As used herein, the term “CLR/Fu” refers to renal clearance of unbound drug, calculated by (CLR/Fu), where the fraction of drug in the serum not bound to proteins (Fu) is determined from in vitro human serum protein binding data.
# Serial urine samples for PK evaluations of grapiprant were collected on Day 14 for up to 48 hours postdose (Cohorts 1-3) or on Day 17 for up to 24 hours postdose (Cohorts 5 and 6).
# Grapiprant was extracted from the urine by protein precipitation, and then analyzed by a validated LC/MS/MS method. The dynamic range of the assay was 1.00 to 600 μg/mL. The following parameters were calculated under the assumption that the amount of grapiprant excreted unchanged in the urine over the dosing interval was at steady state on the 14th day of dosing: amount of parent drug excreted (AE), percent of dose renally excreted unchanged (AE/dose), renal clearance (CLR), and renal clearance of unbound drug (CLR/Fu).
# [2] = Phase 1 crossover food effect study of 375 mg grapiprant tablets: pharmacokinetics; type: in vivo, human; conditions: for AUC(0-inf) / Cmax / AUC(0-t) / half-life / Tmax: human, serum, po, 375 mg, single oral dose, healthy subjects (N = 12); for AUC(0-inf) / Cmax / AUC(0-t) / half-life: arithmetic mean; for AUC(0-t): read-out: AUC(0-tlast); for half-life: read-out: t½ (converted); for Tmax: median
# Description: This study was a randomized, open-label, single dose, 2-period crossover design. Each subject participated in 2 study periods. In each study period, subjects received a dose of 375 mg administered as 3×125 mg tablets of grapiprant under fasted or fed conditions in a crossover manner according to a randomized dosing sequence. The fed condition consisted of a standardized high-fat meal. Following an initial screening period of no longer than 28 days, 12 eligible subjects were to be randomized to the 2 treatment sequences and 2 treatment period sessions as shown in Table 6-1.
# In each study period, subjects received 375 mg grapiprant (as 3×125 mg tablets) under either fed or fasted conditions. Each subject received 2 single doses: Day 1 and Day 8.
# Blood samples were collected at the following times: 0 (just prior to dosing), 0.5, 1, 1.5, 2, 2.5, 3, 4, 6, 8, 12, 16, 24 and 48 hours following each dosing. The primary pharmacokinetic endpoints of the study were AUC(0-tlast) (area under the serum concentration-time curve from time 0 to the time of the last quantifiable concentration), AUC(0-inf) (AUC from time 0 to infinite time), and Cmax (maximum observed serum concentration) of serum grapiprant. The secondary pharmacokinetic endpoints of the study were Tmax (the time to Cmax) and t½ (terminal elimination half-life), as the data permitted.
# Log-transformed AUC(0-inf), AUC(0-tlast) and Cmax were each analyzed using a mixed effects model containing sequence, treatment (fed and fasted), and period as the fixed effects and subject (within sequence) as the random effect. The SAS procedure PROC MIXED was used for the analysis. Compound symmetry was assumed, and Restricted Maximum Likelihood Estimates (REML) were utilized.
# For AUC(0-inf), AUC(0-tlast) and Cmax, on the natural log scale, estimates of the adjusted mean difference between grapiprant tablet under fed condition (test) and grapiprant under fasted condition (reference) and their corresponding 90% confidence intervals were calculated.
# The anti-logs (exponent) of the difference and confidence interval were taken to estimate the mean ratio (relative bioavailability) and its corresponding 90% confidence interval. Vital signs, adverse events, ECG parameters, and safety laboratory values were summarized with descriptive statistics.
# [3] = 50 mg BID (n = 8), after 14 days of multiple oral dosing, healthy adults
# [4] = 150 mg BID (n = 9), after 14 days of multiple oral dosing, healthy adults
# [5] = 250 mg BID (Elderly) (n = 14), after 14 days of multiple oral dosing (Day 17)
# [6] = 300 mg BID (n = 9), after 14 days of multiple oral dosing, healthy adults
# [7] = 375 mg tablets, adjusted geometric means, N = 12
# [8] = 375 mg tablets, standard high-fat meal compared to fasted
# [9] = 375 mg tablet-fed (high-fat meal)
smiles,measurement,setting,value
"CCc1nc2c(C)nc(C)cc2n1-c1ccc(CCNC(=O)NS(=O)(=O)c2ccc(C)cc2)cc1 [Grapiprant, N-((4-(2-ethyl-4,6-dimethyl-1H-imidazo[4,5-c]pyridin-1-yl)phenethyl)carbamoyl)-4-methylbenzenesulfonamide]",CLR/Fu,[1]; [3],6120 mL/min
same,AE,[1]; [3],10.6 (3.18) mg
same,AE/Dose,[1]; [3],21.2 (6.37) %
same,CLR/Fu,[1]; [4],6000 mL/min
same,AE,[1]; [4],33.3 (11.2) mg
same,AE/Dose,[1]; [4],22.2 (7.48) %
same,CLR/Fu,[1]; [5],2720 mL/min
same,AE,[1]; [5],57.9 (18.7) mg
same,AE/Dose,[1]; [5],23.2 (7.48) %
same,CLR/Fu,[1]; [6],4840 mL/min
same,AE,[1]; [6],82.4 (27.1) mg
same,AE/Dose,[1]; [6],27.5 (9.05) %
same,renal clearance corrected for protein binding compared with GFR,[1]; healthy and elderly subjects,much greater than the glomerular filtration rate
same,CL renal,[1]; [3],56.3 mL/min
same,CL renal,[1]; [4],55.2 mL/min
same,CL renal,[1]; [5],25 mL/min
same,CL renal,[1]; [6],44.5 mL/min
same,Geometric Mean Ratio (fed/fasted) of AUC(0-inf),[2]; [7],87.48%
same,Geometric Mean Ratio (fed/fasted) of AUC(0-tlast),[2]; [7],87.42%
same,Geometric Mean Ratio (fed/fasted) of Cmax,[2]; [7],64.16%
same,decrease in AUC,[2]; [8],13%
same,decrease in Cmax,[2]; [8],36%
same,AUC(0-inf),[2]; 375 mg tablet-fasted,29100 ng·h/mL
same,Cmax,[2]; 375 mg tablet-fasted,8990 ng/mL
same,AUC(0-t),[2]; 375 mg tablet-fasted,28900 ng·h/mL
same,half-life,[2]; 375 mg tablet-fasted,9.48 h
same,Tmax,[2]; 375 mg tablet-fasted,1 h
same,AUC(0-inf),[2]; [9],24800 ng·h/mL
same,Cmax,[2]; [9],5840 ng/mL
same,AUC(0-t),[2]; [9],24600 ng·h/mL
same,half-life,[2]; [9],8.52 h
same,Tmax,[2]; [9],4 h
